Assay results taken from patent publication US20190365675A1, “COMPOSITIONS FOR THE PREVENTION AND/OR TREATMENT OF ALCOHOL USE DISORDERS” (SERVICIO ANDALUZ DE SALUD, priority 2016, published 2019).

Legend:
IL-1β = IL-1β mRNA and protein (ELISA) in frontal cortex and plasma after ethanol intoxication; assay type: in vivo, Wistar rats; conditions: OEA pre-treatment
Method: The animals were treated with intragastric (i.g.) ethanol 3 times a day using an i.g. cannula (16G needle, Fisher Scientific, Waltham, Mass., USA), following a protocol based on a slightly modified standard 4-day alcohol intoxication pattern (Bernier et al., 2002a, b) (FIG. 1A). The ethanol doses were administered every 8 h for a total time of 4 days. The rats treated with ethanol received an initial loading dose of 5 g/kg of ethanol in a 30% solution (w/v) and then a maximum maintenance dose of 3 g/kg, which were determined based on blood ethanol levels (BEL). This repeated standard alcohol intoxication paradigm kept BEL intoxication relatively constant in a range of sedation/ataxia (190 to 430 mg/dl, Table 3), according to the 6-point alcohol intoxication behavior scale (Majchrowicz, 1975). The mean dose of ethanol/rat/day (days 1-4) was 7.06 g/kg, similar to other studies (Obernier et al., 2002a, b). OEA (5 mg/kg, i.p., except initial dose of 10 mg/kg i.p.; synthesized as described in Giuffrida et al., 2000) was dissolved in the vehicle (5% Tween-80 in saline solution) and injected 10 minutes before each of the administrations of ethanol by an intragastric gavage. The anti-inflammatory activity of OEA at 10 mg/kg per intraperitoneal route in the frontal cortex before the injection of LPS (Sayd et al., 2014) was previously referred to. In this study, OEA is repeatedly injected as a pre-treatment before each administration of ethanol. […] The quantitative changes in mRNA levels were estimated by means of RT-PCR, carried out in the presence of the SYBR green primer using a 20-L reaction in a Rotor-Gene (Corbett Research®, Mortlake, NSW, Australia). […] The levels of soluble HMGB1, TNF-α, IL-1β and MCP-1 were determined by means of a commercially available enzyme-linked immunosorbent assay kit (ELISA) (Elabscience Biotechnology Co., Ltd., China, for HMGB-1; RayBiotech®, GA, USA, for TNF-α, IL-1β, and MCP-1). The nuclear/cytosol HMGB1 fraction was determined by means of Western blot analysis.

NF-kB p65 subunit = experiment: NF-κB p65 mRNA and nuclear activity (ELISA-based kit) in frontal cortex after ethanol intoxication; assay type: in vivo, Wistar rats
Method: The animals were treated with intragastric (i.g.) ethanol 3 times a day using an i.g. cannula (16G needle, Fisher Scientific, Waltham, Mass., USA), following a protocol based on a slightly modified standard 4-day alcohol intoxication pattern (Bernier et al., 2002a, b) (FIG. 1A). The ethanol doses were administered every 8 h for a total time of 4 days. The rats treated with ethanol received an initial loading dose of 5 g/kg of ethanol in a 30% solution (w/v) and then a maximum maintenance dose of 3 g/kg, which were determined based on blood ethanol levels (BEL). This repeated standard alcohol intoxication paradigm kept BEL intoxication relatively constant in a range of sedation/ataxia (190 to 430 mg/dl, Table 3), according to the 6-point alcohol intoxication behavior scale (Majchrowicz, 1975). […] The quantitative changes in mRNA levels were estimated by means of RT-PCR, carried out in the presence of the SYBR green primer using a 20-L reaction in a Rotor-Gene (Corbett Research®, Mortlake, NSW, Australia). […] The nuclear extracts of the frontal cortex were incubated with specific NF-kB p65 subunit response element probes, and the binding of p65 to its probe was detected using an antibody specific for this subunit. A secondary antibody labeled by means of horseradish peroxidase was added, and the binding was detected by means of spectrophotometry at 450 nm. […]

## CCCCCCCC/C=C\CCCCCCCC(=O)NCCO [OEA, oleoylethanolamide]
IL-1β; frontal cortex, ELISA
  Ethanol-induced increase in IL-1β protein levels: prevented
IL-1β; frontal cortex
  Ethanol-induced increase in IL-1β mRNA: did not prevent
IL-1β; plasma, ELISA
  Ethanol-induced increase in IL-1β plasma levels: prevented
NF-kB p65 subunit; frontal cortex nuclear extracts, OEA pre-treatment
  Ethanol-induced increase in nuclear activity of p65: counteracted
NF-kB p65 subunit; frontal cortex, OEA pre-administration
  Ethanol-induced increase in p65 mRNA levels: partially prevented
